# Assay results published in paper PMC5036131, “Fragment-based discovery of a new family of non-peptidic small-molecule cyclophilin inhibitors with potent antiviral activities” (Nature Communications, 2016).
# Read-outs that look alike come from different tables or passages of the source.
# Columns and labels:
# HCV genotype 1b replicon = assay: microbe, parasite or virus in culture; format: cell-based, hepatitis C virus
# [1] = LogD determination by reverse-phase HPLC; format: physicochemical; conditions: octanol/water, pH 7.4
# Procedure: The octanol/water partitioning (LogD) values of compounds were determined from their retention times during reverse-phase HPLC at pH 7.4 with diode array ultraviolet/visible detection. The LogD values were obtained by interpolation within a standard curve (range LogD: 0.3–5.7) generated with seven standards, with LogD values previously determined using the shake-flask method.
# Chemical stability, 24 h = format: physicochemical; conditions: 37 °C, remaining
# [2] = Stability with hepatic microsomal fractions; format: in vitro ADME; conditions: human microsomes 0.5 mg protein/ml, NADPH, 3 μM
# Procedure: The compounds (3 μM) were incubated in duplicate for up to 1 h in the presence of human hepatic microsomal fractions (0.5 mg protein ml^−1 final) at 37 °C. The addition of cofactor solution (NADPH generating system) initiated the reaction and aliquots were removed at 0, 5, 15, 30, 45 and 60 min after the start. The concentrations of the compounds in each sample were determined using specific LC-MS/MS assays. The half-life for the disappearance of each was determined by fitting the concentration-time data with a monophasic exponential model. A control compound (verapamil) was run in parallel to test the enzymatic integrity of the microsomal fractions.
# CYP2B6 [3] = target: T1, CYP2B6 (Homo sapiens, UniProt P20813); assay: Metabolism by recombinant human cytochrome P450, CYP2B6; format: in vitro ADME; conditions: recombinant enzyme
# T1 sequence (P20813 1-491): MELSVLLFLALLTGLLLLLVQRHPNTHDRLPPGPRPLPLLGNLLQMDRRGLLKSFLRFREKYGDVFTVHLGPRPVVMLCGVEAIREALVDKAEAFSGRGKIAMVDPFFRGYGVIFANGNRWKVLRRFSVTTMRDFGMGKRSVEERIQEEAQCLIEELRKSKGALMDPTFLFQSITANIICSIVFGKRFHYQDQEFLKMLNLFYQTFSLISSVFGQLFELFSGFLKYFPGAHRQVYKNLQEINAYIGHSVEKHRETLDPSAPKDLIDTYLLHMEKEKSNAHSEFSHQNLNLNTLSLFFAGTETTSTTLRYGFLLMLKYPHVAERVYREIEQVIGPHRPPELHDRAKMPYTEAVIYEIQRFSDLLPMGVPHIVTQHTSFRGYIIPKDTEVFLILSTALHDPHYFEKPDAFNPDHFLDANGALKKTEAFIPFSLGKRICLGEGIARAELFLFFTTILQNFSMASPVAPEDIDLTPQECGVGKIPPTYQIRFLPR
# Procedure: (§1) […] of compound was incubated with individual bacterially expressed recombinant human cytochromes P450 co-expressed with human NADPH cytochrome P450 reductase. […] Enzyme-selective positive control substrates were tested in parallel.
# CYP2C9 [4] = target: T2, CYP2C9 (Homo sapiens, UniProt P11712); assay: Metabolism by recombinant human cytochrome P450, CYP2C9; format: in vitro ADME; conditions: recombinant enzyme
# T2 sequence (P11712 whole entry): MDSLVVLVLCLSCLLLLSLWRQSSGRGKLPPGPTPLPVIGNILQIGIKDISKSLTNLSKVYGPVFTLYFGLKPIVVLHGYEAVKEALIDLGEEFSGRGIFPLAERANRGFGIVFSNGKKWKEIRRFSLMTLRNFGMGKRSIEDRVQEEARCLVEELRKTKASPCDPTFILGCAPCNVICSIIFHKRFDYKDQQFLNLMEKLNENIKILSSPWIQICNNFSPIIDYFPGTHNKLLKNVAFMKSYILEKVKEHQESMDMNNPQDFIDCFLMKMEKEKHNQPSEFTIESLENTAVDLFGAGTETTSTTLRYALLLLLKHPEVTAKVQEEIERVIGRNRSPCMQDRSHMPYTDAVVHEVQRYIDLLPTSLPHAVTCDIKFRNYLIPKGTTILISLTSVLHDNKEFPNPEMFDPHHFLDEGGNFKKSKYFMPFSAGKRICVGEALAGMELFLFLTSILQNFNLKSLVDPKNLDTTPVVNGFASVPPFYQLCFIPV
# Procedure: as §1
# CYP2C19 = CYP2C19 (Homo sapiens, UniProt P33261); assay: Metabolism by recombinant human cytochrome P450, CYP2C19; format: in vitro ADME; conditions: recombinant enzyme
# CYP2C19, sequence (P33261 whole entry): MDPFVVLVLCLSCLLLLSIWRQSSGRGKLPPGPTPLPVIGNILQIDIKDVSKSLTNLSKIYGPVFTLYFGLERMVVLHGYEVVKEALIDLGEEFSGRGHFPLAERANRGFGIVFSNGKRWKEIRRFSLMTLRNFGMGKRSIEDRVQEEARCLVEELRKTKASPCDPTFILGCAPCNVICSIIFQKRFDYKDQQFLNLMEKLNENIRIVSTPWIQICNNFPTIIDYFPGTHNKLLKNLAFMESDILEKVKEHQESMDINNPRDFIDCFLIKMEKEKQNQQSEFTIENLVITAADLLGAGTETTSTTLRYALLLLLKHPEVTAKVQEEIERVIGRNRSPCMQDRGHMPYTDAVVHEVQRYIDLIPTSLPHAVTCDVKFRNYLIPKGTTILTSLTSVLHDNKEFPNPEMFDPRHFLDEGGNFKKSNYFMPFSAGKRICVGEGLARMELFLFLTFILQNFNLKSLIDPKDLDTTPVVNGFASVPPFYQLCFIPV
# Procedure: as §1
# Huh7 cells = assay: Cellular toxicity in Huh7 replicon cells; conditions: read-out: HCV genotype 1b replicon CC50; Huh7 cells
# CYP1A2 = target: T3, CYP1A2 (Homo sapiens, UniProt P05177); assay: Cytochrome P450 enzyme inhibition assay, CYP1A2; format: in vitro ADME; parameters: incubated with human hepatic microsomal fractions and NADPH; from tissue; host or cells: human hepatic microsomal fractions; conditions: human hepatic microsomal fractions, up to 25 μM
# T3 sequence (P05177 1-516): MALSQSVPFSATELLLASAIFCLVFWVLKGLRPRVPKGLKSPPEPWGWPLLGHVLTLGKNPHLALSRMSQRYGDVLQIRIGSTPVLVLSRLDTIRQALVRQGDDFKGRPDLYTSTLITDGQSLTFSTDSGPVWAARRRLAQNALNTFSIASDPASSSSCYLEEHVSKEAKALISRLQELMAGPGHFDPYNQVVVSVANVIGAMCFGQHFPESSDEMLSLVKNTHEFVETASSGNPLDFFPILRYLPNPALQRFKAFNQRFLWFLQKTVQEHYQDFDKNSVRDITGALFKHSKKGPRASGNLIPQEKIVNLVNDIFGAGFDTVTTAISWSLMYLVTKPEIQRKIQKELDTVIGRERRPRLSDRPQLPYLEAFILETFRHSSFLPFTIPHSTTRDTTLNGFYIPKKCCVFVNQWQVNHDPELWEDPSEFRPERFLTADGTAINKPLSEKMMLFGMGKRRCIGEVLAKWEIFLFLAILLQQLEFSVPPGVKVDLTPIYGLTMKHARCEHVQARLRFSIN
# Procedure: (§2) Up to 25 μM of compounds 29 and 30 was incubated with human hepatic microsomal fractions and NADPH in the presence of individual probe substrates. All assays were designed so that conditions were linear with respect to time and protein concentration. Substrates were present at concentrations equal to or lower than their respective Km values. Enzyme selective products were determined by fluorometry (ethoxyresorufin O-deethylase) or by specific LC-MS/MS assays. Relative enzyme activities were determined by comparison with those assayed with DMSO vehicle instead of inhibitor. IC50 values were calculated by nonlinear curve fitting using a sigmoidal model. Positive control inhibitors for each enzyme were tested in parallel.
# CYP2B6 [5] = target: T1, CYP2B6; assay: Cytochrome P450 enzyme inhibition assay, CYP2B6; format: in vitro ADME; parameters: incubated with human hepatic microsomal fractions and NADPH; from tissue; host or cells: human hepatic microsomal fractions; conditions: human hepatic microsomal fractions, up to 25 μM
# Procedure: as §2
# CYP2C9 [6] = target: T2, CYP2C9; assay: Cytochrome P450 enzyme inhibition assay, CYP2C9; format: in vitro ADME; parameters: incubated with human hepatic microsomal fractions and NADPH; from tissue; host or cells: human hepatic microsomal fractions; conditions: human hepatic microsomal fractions, up to 25 μM
# Procedure: as §2
# CYP2D6 = CYP2D6 (Homo sapiens, UniProt P10635); assay: Cytochrome P450 enzyme inhibition assay, CYP2D6; format: in vitro ADME; parameters: incubated with human hepatic microsomal fractions and NADPH; from tissue; host or cells: human hepatic microsomal fractions; conditions: human hepatic microsomal fractions, up to 25 μM
# CYP2D6, sequence (P10635 whole entry): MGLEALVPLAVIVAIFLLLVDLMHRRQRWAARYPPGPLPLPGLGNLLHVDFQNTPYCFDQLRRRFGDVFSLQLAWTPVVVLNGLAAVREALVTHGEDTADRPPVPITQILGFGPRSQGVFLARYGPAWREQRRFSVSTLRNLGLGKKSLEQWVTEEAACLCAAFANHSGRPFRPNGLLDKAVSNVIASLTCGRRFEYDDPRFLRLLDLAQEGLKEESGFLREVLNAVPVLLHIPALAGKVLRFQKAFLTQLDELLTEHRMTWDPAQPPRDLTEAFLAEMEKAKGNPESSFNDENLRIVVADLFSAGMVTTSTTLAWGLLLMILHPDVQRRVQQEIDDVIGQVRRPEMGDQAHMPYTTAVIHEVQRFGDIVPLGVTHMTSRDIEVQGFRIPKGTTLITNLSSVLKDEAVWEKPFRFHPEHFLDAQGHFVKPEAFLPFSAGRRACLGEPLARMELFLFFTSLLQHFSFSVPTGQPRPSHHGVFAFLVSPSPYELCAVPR
# Procedure: as §2
smiles,measurement,setting,value
CSCCC(NC(=O)NCc1ccc(N)cc1)C(=O)N1CCCC1c1ccccc1SC.O=C(O)C(F)(F)F (stereo not drawn) [Compound 30],EC50,"HCV genotype 1b replicon; Huh7 cells, 3 days, HCV RNA, read-out: HCV genotype 1b replicon EC50",1.4 ± 1.2 µM
same,EC50,"HCV genotype 1b replicon; wild-type genotype 1b replicon, comparison with mutated replicons (Table 3), read-out: EC50 HCV (WT) subgenomic replicon",2.1 ± 0.09 µM
same,LogD,[1],2.6
same,24-hour stability HCl (pH 1.0),"Chemical stability, 24 h",92%
same,24-hour stability PBS (pH 7.4),"Chemical stability, 24 h",100%
same,24-hour stability PBS (pH 7.4),"Chemical stability, 24 h; listed as compound 30",not degraded
same,"Hepatic microsomal stability, T1/2",[2],35.5 min
same,Rate of metabolism by human cytochrome P450 CYP2B6,CYP2B6 [3],< 0.12 pmol/pmol P450/min
same,Rate of metabolism by human cytochrome P450 CYP2B6,CYP2B6 [3]; listed as compound 30,Neither compound 29 nor compound 30 was metabolized
same,Rate of metabolism by human cytochrome P450 CYP2C9,CYP2C9 [4],0.49 pmol/pmol P450/min
same,Rate of metabolism by human cytochrome P450 CYP2C19,CYP2C19,6.21 pmol/pmol P450/min
same,Rate of metabolism by human cytochrome P450 CYP2C19,CYP2C19; listed as compound 30,metabolized at the highest rate
same,CC50,Huh7 cells,> 100 µM
same,IC50,CYP1A2,> 25 µM
same,"Inhibition of cytochrome P450 activity, IC50 CYP1A2",CYP1A2,Neither compound 29 nor compound 30 significantly inhibited
same,IC50,CYP2B6 [5],> 25 µM
same,"Inhibition of cytochrome P450 activity, IC50 CYP2B6",CYP2B6 [5],Neither compound 29 nor compound 30 significantly inhibited
same,IC50,CYP2C9 [6],> 25 µM
same,"Inhibition of cytochrome P450 activity, IC50 CYP2C9",CYP2C9 [6],Neither compound 29 nor compound 30 significantly inhibited
same,"Inhibition of cytochrome P450 activity, IC50 CYD2D6",CYP2D6,Neither compound 29 nor compound 30 significantly inhibited
same,IC50,"CYP2D6; read-out: Inhibition of cytochrome P450 activity, IC50 CYD2D6",> 25 µM
